Counter-ions that a name gives are not always drawn. Like-named read-outs stand apart in the source and are kept apart here.
Legend:
SUDHL5 [1] = assay: Anti-proliferative effect (CellTiter-Glo, 72 h), SUDHL5; assay type: cell-based; details: SUDHL5 cells, antiproliferation, median, read-out: Antiproli SUDHL5 [M] (median)
Procedure, shortened: (§1)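 Plate cells alongside a separate day 0 reference plate. Read the reference plate at once with CellTiter-Glo. Incubate treated cells 72 h at 37 °C, then read them the same way by luminescence.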

MV-4-11 = assay: Anti-proliferative effect (CellTiter-Glo, 72 h), MV-4-11; assay type: cell-based; details: median, read-out: IC50 antiproliferation assay MV-4-11 [M] (median)
Procedure, shortened: as §1

SUDHL5 [2] = assay: Induction of cytotoxicity (CellTiter-Glo, 5 h), SUDHL5
A2780 = assay: Anti-proliferative effect (CellTiter-Glo, 72 h), A2780; assay type: cell-based; details: A2780 cells, median, read-out: IC50 antiproliferation assay A2780 [M] (median)
Procedure, shortened: as §1

MCL-1 = MCL-1 (Homo sapiens, UniProt Q07820); assay: Protein-protein interaction assay MCL-1/Noxa BH3 peptide (MCL-1 assay), TR-FRET; assay type: binding; details: MBP-MCL-1 / Noxa BH3-derived peptide, median
Procedure, shortened: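 Steady-state competition, MCL-1/Noxa BH3, TR-FRET readout; 1 nM MBP-MCL-1, 11-point dose series 0.1 nM–20 μM; overnight 4 °C equilibration; 4-parameter IC50.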

SUDHL5 [3] = assay: Induction of caspase-3/7 activity (Caspase-Glo 3/7), SUDHL5; assay type: cell-based; details: caspase-3/7 induction, SUDHL5 cells, 3 h treatment, median
Procedure, shortened: (§2)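 A 3 h, 37 °C compound incubation precedes the Caspase-Glo 3/7 read. After subtracting medium-only signal, EC50s are fitted against the reference compound's maximal caspase induction.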

OPM2 = assay: Anti-proliferative effect (CellTiter-Glo, 72 h), OPM2; assay type: cell-based; details: OPM2 cells, median, read-out: IC50 antiproliferation assay OPM2 [M] (median)
Procedure, shortened: as §1

SUDHL10 [4] = assay: Induction of cytotoxicity (CellTiter-Glo, 5 h), SUDHL10
SUDHL10 [5] = assay: Induction of caspase-3/7 activity (Caspase-Glo 3/7), SUDHL10; assay type: cell-based; details: caspase-3/7 induction, SUDHL10 cells, 3 h treatment, median
Procedure, shortened: as §2

SUDHL10 [6] = assay: Anti-proliferative effect (CellTiter-Glo, 72 h), SUDHL10; assay type: cell-based; details: SUDHL10 cells, antiproliferation, median, read-out: Antiproli SUDHL10 [M] (median)
Procedure, shortened: as §1

[7] = Homo sapiens, SU-DHL-5, 72 h, 72 h incubation
[8] = Homo sapiens, MV4-11, 72 h, MV-4-11 cells
[9] = read-out: Cytotox SUDHL5 [M] (median), SUDHL5 cells, cytotoxicity induction, CellTiter-Glo, 5 h incubation, median
[10] = read-out: Cytotox SUDHL10 [M] (median), SUDHL10 cells, cytotoxicity induction, CellTiter-Glo, 5 h incubation, median
[11] = read-out: Cytotox SUDHL5 [M] (median), SUDHL5 cells, cytotoxicity induction, CellTiter-Glo, 5 h, median
[12] = read-out: Cytotox SUDHL10 [M] (median), SUDHL10 cells, cytotoxicity induction, CellTiter-Glo, 5 h, median
[13] = Homo sapiens, SU-DHL-5, 5 h, read-out: Cytotox SUDHL5 [M] (median), SUDHL5 cells, cytotoxicity induction, CellTiter-Glo, 5 h incubation, median
[14] = Homo sapiens, SU-DHL10, 5 h, read-out: Cytotox SUDHL10 [M] (median), SUDHL10 cells, cytotoxicity induction, CellTiter-Glo, 5 h incubation, median
[15] = Homo sapiens, SU-DHL10, 72 h, 72 h incubation

Chain of MCL-1 (Q07820 whole entry): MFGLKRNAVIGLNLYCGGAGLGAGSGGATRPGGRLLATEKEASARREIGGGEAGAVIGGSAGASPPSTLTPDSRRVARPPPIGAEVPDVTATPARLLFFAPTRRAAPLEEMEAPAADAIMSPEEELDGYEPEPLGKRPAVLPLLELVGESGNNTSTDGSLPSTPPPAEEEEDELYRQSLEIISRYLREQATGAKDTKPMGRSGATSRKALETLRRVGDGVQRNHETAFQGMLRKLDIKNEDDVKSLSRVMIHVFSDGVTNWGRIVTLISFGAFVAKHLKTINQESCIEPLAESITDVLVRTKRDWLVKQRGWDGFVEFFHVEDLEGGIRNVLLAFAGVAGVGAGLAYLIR

SMILES	IC50 (SUDHL5 [1]; [7]) [M]	IC50 (MV-4-11; [8]) [M]	IC50 (SUDHL5 [2]; [9]) [M]	IC50 (A2780) [M]	IC50 (MCL-1) [µM]	EC50 (SUDHL5 [3]) [µM]	EC50 (SUDHL10 [5]) [µM]	IC50 (A2780; Homo sapiens, A2780, 72 h) [M]	EC50 (SUDHL5 [3]; Homo sapiens, SU-DHL-5, 3 h) [µM]	EC50 (SUDHL10 [5]; Homo sapiens, SU-DHL10, 3 h) [µM]	IC50 (SUDHL5 [2]; [13]) [M]	IC50 (SUDHL10 [4]; [14]) [M]	IC50 (SUDHL10 [6]; 72 h incubation) [M]	other results
COCC(=O)N1CCN(c2ccc(OCc3nn(C)c4c3-c3cccc5c(CCCOc6cccc7ccccc67)c(C(=O)O)n(c35)CCCCOC4)cc2)CC1 (single isomer, unassigned; enantiomer 2) [Example 1-29, 3-({4-[4-(methoxyacetyl)piperazin-1-yl]phenoxy}methyl)-1-methyl-7-[3-(naphthalen-1-yloxy)propyl]-1,10,11,12,13,15-hexahydropyrazolo[4′,3′:9,10][1,6]oxazacycloundecino[8,7,6-hi]indole-8-carboxylic Acid (Enantiomer 2)]	3.26e-06	2.58e-06	3.29e-06	2.38e-05	0.00119	2.64	5.26	–	–	–	–	–	–	IC50 (OPM2): 4.53e-06 M; IC50 (SUDHL10 [4]; [10]): 6.87e-06 M
Cc1nn(C)c2c1-c1cccc3c(CCCOc4cccc5ccccc45)c(C(=O)O)n(c13)CCCCOC2 (single isomer, unassigned; enantiomer 1) [Example 317, (+)-1,3-dimethyl-7-[3-(naphthalen-1-yloxy)propyl]-1,10,11,12,13,15-hexahydropyrazolo[4′,3:9,10][1,6]oxazacycloundecino[8,7,6-hi]indole-8-carboxylic Acid (Enantiomer 1)]	–	2.34e-05	–	–	0.0115	–	–	> 3.3e-05	24.5	> 33	–	–	–	IC50 (SUDHL5 [1]; Homo sapiens, SU-DHL-5, 72 h, 72 h): 2.71e-05 M; IC50 (SUDHL5 [2]; Homo sapiens, SU-DHL-5, 5 h, read-out: Cytotox SUDHL5 [M] (median), SUDHL5 cells, cytotoxicity induction, CellTiter-Glo, 5 h, median): 1.55e-05 M; IC50 (SUDHL10 [4]; Homo sapiens, SU-DHL10, 5 h, read-out: Cytotox SUDHL10 [M] (median), SUDHL10 cells, cytotoxicity induction, CellTiter-Glo, 5 h, median): > 3.3e-05 M; IC50 (SUDHL10 [6]; Homo sapiens, SU-DHL10, 72 h, 72 h): > 3.3e-05 M
Cc1nn(C)c2c1-c1cccc3c(CCCOc4cccc5ccccc45)c(C(=O)O)n(c13)CCCCOC2 (single isomer, unassigned; enantiomer 2) [Example 318, (−)-1,3-dimethyl-7-[3-(naphthalen-1-yloxy)propyl]-1,10,11,12,13,15-hexahydropyrazolo[4′,3′:9,10][1,6]oxazacycloundecino[8,7,6-hi]indole-8-carboxylic Acid (Enantiomer 2)]	–	–	–	> 3.3e-05	0.0131	26.4	> 33	–	–	–	–	–	–	IC50 (SUDHL5 [1]; 72 h): 1.84e-05 M; IC50 (MV-4-11; MV-4-11 cells): 3.28e-05 M; IC50 (SUDHL5 [2]; [11]): 1.62e-05 M; IC50 (SUDHL10 [4]; [12]): > 3.3e-05 M; IC50 (SUDHL10 [6]; 72 h): 2.72e-05 M
Cn1nc(CN2CCOCC2)c2c1COCC=CCn1c(C(=O)O)c(CCCOc3cccc4ccccc34)c3cccc-2c31 (single isomer, unassigned; enantiomer 1) [Example 133, (E/Z)-1-methyl-3-(morpholin-4-ylmethyl)-7-[3-(naphthalen-1-yloxy)propyl]-1,10,13,15-tetrahydropyrazolo[4′,3′:9,10][1,6]oxazacycloundecino[8,7,6-hi]indole-8-carboxylic acid-N-ethylethanamine Salt (Enantiomer 1)]	1.62e-05	6.84e-06	–	–	0.0186	–	–	1.51e-05	17.6	32.8	1.84e-05	2.95e-05	4.25e-06	–
O=C(O)c1c(CCCOc2cccc3ccccc23)c2cccc3c2n1CCCCOCc1nn2c(c1-3)CCCC2 (racemic) [Example 253, (rac)-1-[3-(naphthalen-1-yloxy)propyl]-4,5,6,7,12,13,14,15-octahydro-9H-pyrido[1″,2″:1′,5′]pyrazolo[4′,3′:9,10][1,6]oxazacycloundecino[8,7,6-hi]indole-2-carboxylic Acid]	5.74e-06	7.59e-06	–	–	0.00867	–	–	2.83e-05	6.7	18.6	6.7e-06	1.96e-05	–	IC50 (SUDHL10 [6]; [15]): 1.17e-05 M
COCc1nn(C)c2c1-c1cccc3c(CCCOc4cccc5ccccc45)c(C(=O)O)n(c13)CCCCN(C)C2 (single isomer, unassigned; enantiomer 1) [Example 184, 3-(methoxymethyl)-1,14-dimethyl-7-[3-(naphthalen-1-yloxy)propyl]-10,11,12,13,14,15-hexahydro-1H-pyrazolo[3′,4′:8,9][1,6]diazacycloundecino[10,11,1-hi]indole-8-carboxylic acid-N-ethylethanamine Salt (Enantiomer 1)]	–	1.52e-06	8.82e-07	–	0.0016	0.803	2.9	> 3.3e-05	–	–	–	–	1.2e-06	IC50 (SUDHL5 [1]; 72 h incubation): 1.34e-06 M; IC50 (SUDHL10 [4]; [10]): 2.94e-06 M
Cc1c2c(nn1CCN1CCOCC1)COCCCCn1c(C(=O)O)c(CCCOc3cccc4cc(F)ccc34)c3cccc-2c31 (racemic) [Example 284, (rac)-7-{3-[(6-fluoronaphthalen-1-yl)oxy]propy}-3-methyl-2-[2-(morpholin-4-yl)ethyl]-2,10,11,12,13,15-hexahydropyrazolo[4′,3′:9,10][1,6]oxazacycloundecino[8,7,6-hi]indole-8-carboxylic Acid]	2.82e-06	8.62e-06	–	–	0.00221	–	–	1.52e-05	1.84	3.73	2.46e-06	4.25e-06	–	IC50 (SUDHL10 [6]; [15]): 7.01e-06 M
Cc1nn(CC(F)(F)F)c2c1-c1cccc3c(CCCOc4cccc5ccccc45)c(C(=O)O)n(c13)CCCCOC2 (single isomer, unassigned; enantiomer 1) [Example 110, 3-methyl-7-[3-(naphthalen-1-yloxy)propyl]-1-(2,2,2-trifluoroethyl)-1,10,11,12,13,15-hexahydropyrazolo[4′,3′:9,10][1,6]oxazacycloundecino[8,7,6-hi]indole-8-carboxylic acid-N-ethylethanamine Salt (Enantiomer 1)]	–	1.33e-05	6.54e-06	–	0.0124	8.06	–	> 3.3e-05	–	26	–	2.37e-05	1.72e-05	IC50 (SUDHL5 [1]; 72 h incubation): 1.24e-05 M
Cn1nc(CN2CC3(COC3)C2)c2c1COCCCCn1c(C(=O)O)c(CCCOc3cccc4ccccc34)c3cccc-2c31 (single isomer, unassigned; enantiomer 2) [Example 345, 1-methyl-7-[3-(naphthalen-1-yloxy)propyl]-3-(2-oxa-6-azaspiro[3.3]hept-6-ylmethyl)-1,10,11,12,13,15-hexahydropyrazolo[4′,3′:9,10][1,6]oxazacycloundecino[8,7,6-hi]indole-8-carboxylic acid-N-ethylethanamine Salt (Enantiomer 2)]	–	–	–	1.59e-05	0.026	7.02	12.8	–	–	–	–	–	–	IC50 (SUDHL5 [1]; 72 h): 7.32e-06 M; IC50 (MV-4-11; Homo sapiens, MV4-11, MV-4-11 cells): 7.47e-06 M; IC50 (SUDHL5 [2]; [11]): 8.32e-06 M; IC50 (SUDHL10 [4]; [12]): 1.32e-05 M; IC50 (SUDHL10 [6]; 72 h): 5.68e-06 M

— patent US10981932B2, “Macrocyclic indole derivatives” (Bayer Aktiengesellschaft, priority 2016, dated 2021)
